{"source": "paper PMC2862740", "about": "“Furin Targeted Drug Delivery for Treatment of Rhabdomyosarcoma in a Mouse Model” (PLoS ONE, 2010)", "key": {"RD cells [1]": {"system": "RD cells", "assay": "competition of phage RMS-P3 binding by synthetic peptide", "format": "cell-based", "settings": "for regression slope b of phage RMS-P3 binding versus peptide concentration: least-squares regression, N = 18, RMS-P3 r^2 = 0.889, p<0.0001, control r^2 = 0.0002, p = 0.959", "method": "Figure 1 Validation of selected phages binding on RMS cells in vivo and in vitro. (A) Quantification of binding of single phage clones to different cell lines. Six phages selected from in vitro and in vivo screenings were validated individually in binding assays to three RMS cell lines (embryonal RMS: RD; alveolar RMS: Rh30 and Rh4) as well as to normal myoblasts (SkMC-c) and fibroblast cells (MRC-5). Phage clones are ordered according to the frequency of occurrence. Binding was calculated over non-recombinant T7, depicted are mean values ± SD of three independent experiments. (B) RMS-P3 and RMS-P6 phage distribution in RD mouse xenografts. Homing of phages to tumor was compared to control organs. Binding was normalized over phage T7 and tissue weight. Mean values ± SD of four independent experiments are shown. Numerical values for tumor to organ ratios are indicated above the bars. (C) Validation of RMS-P3 peptide sequence by competition of phage binding. 10^6 RD cells were incubated for 30 min with increasing concentrations of RMS-P3 peptide ([…]) or control peptide ([…]). Then, phages (10^9 pfu) were added for 1 h. Phage binding was normalized over non-recombinant T7. Data are presented as percentage of maximal phage binding obtained in the absence of synthetic peptide. Error bars indicate mean ± SD from three independent experiments. […] TEXT PRINTED IN THE PICTURE: (B) RMS-P6: tumor: 1; muscle: 1/6; kidney: 1/8; brain: 1/28; skin: 1/12 | (B) RMS-P3: tumor: 1; muscle: 1/24; kidney: 1/15; brain: 1/12; skin: 1/10 DOUBTS OF THE COPYIST ABOUT THIS PICTURE: Panel B: the picture prints no measure for the numbers over the bars. Each tissue name was assigned from the bar fill and the order of the printed key. / RMS-P6, brain: 1/28, the last digit may be 8 or 6 (small print)\n(§1) 10^6 RD cells were detached (2.5 mM EDTA-PBS) and reconstituted (DMEM/1% BSA). Cells were preincubated with 100 µl of peptides (RMS-P3 or RMS-Pctrl) or general PC inhibitor decanoyl-Arg-Val-Lys-Arg-chloromethylketone (Dec-RVKR-cmk, Calbiochem, Switzerland) for 30 minutes. Phages (10^9 pfu) were added for 1 hour at RT under continuous rotation. Cells were washed four times with DMEM/1% BSA; titer of bound phage was determined by titration with BLT5403 and calculated over non-recombinant T7."}, "RD xenografts": {"system": "RD xenografts", "assay": "targeted doxorubicin treatment of RD xenografts", "description": "Five groups of 6 mice were treated when tumors reached 60 mm^3 in size. Treatment consisted of weekly tail vein injections for 30 days.\nCD1-Nu/nu mice (4 to 6 weeks old, Charles River, Germany) were used for the in vivo screening, and 6 weeks old NOD/SCID IL2R γ-/- mice were used for all other studies. RMS cells (5×10^6 in 150 µl HBSS) were injected subcutaneously into the dorsolateral flank of the mice. Both diameters (d) of the spherical tumors were measured twice weekly and the volume was calculated with the general formula V = (4/3) πr^3, whereby r = (d1+d2)/4. Prior to the experiment, mice were anesthetized with 0.015 ml/g avertin by i.p. injection. 1 mg/ml of FITC-peptide in 250 µl PBS was injected by tail vein injection into mice bearing tumors 150 mm^3 in size. After 10 minutes circulation, mice were perfused, tumor and control organs were dissected and frozen in O.C.T. embedding medium (Leica Microsystems, Germany). 10 µm cryosections were washed with PBS, fixed for 15 minutes in ice-cold methanol and air-dried. Endothelial stainings were performed using rat monoclonal antibodies against mouse markers CD31 and MECA-32, both at the dilution of 1∶50 (BD biosciences, Switzerland). A rabbit polyclonal anti-furin-antibody (Abcam) was used at a dilution of 1∶1500. All corresponding secondary antibodies were AlexaFluor594-labeled IgGs (1∶300, Invitrogen).\nMice with size-matched tumors (∼60 mm^3) were randomized into five groups and injected once per week for 4 consecutive weeks. […] Control groups received either a mixture of 10 µg free doxorubicin and peptide RMS-P3/RR, an equimolar solution of peptide RMS-P-3/RR alone or PBS alone. Concentrations were confirmed by measuring the absorbance of conjugated doxorubicin at 490 nm. […] Mice were monitored for weight and tumor growth for 30 days."}, "RD cells [2]": {"system": "RD cells", "assay": "competition of phage RMS-P3/RR binding by Dec-RVKR-cmk", "format": "cell-based", "method": "(§2) Figure 4 RMS-P3/RR phage binding correlates with furin expression levels. (A) Binding of phage RMS-P3/RR to untransfected (MRC-5), furin-overexpressing (MRC-FUR) and empty vector transfected MRC-5 fibroblasts (MRC-EV) was tested in vitro. Phage binding was quantified over control T7. Results of three independent experiments ± SD are shown. Western blot of the same samples for furin expression and PCNA as loading control (A, lower panels) (B) Micrographs of MRC-5 fibroblasts (upper row) and MRC-5-FUR (lower row) cells incubated with 100 nM FITC-RMS-P3/RR (green) for 1h at RT, fixed and stained with the anti-furin-antibody Mon-152 (red). Nuclei are visualized by DAPI staining (blue). Yellow indicates overlap of the two stainings. Magnification: 40x; scale bars: 20 µm. (C) Inhibition of furin maturation in α1-PDX-transfected RD cells reduces phage binding. Phage RMS-P3/RR binding to untransfected RD, furin-inhibited RD-PDX and empty-vector transfected RD-EV cells was determined over non-recombinant T7 in three independent experiments (means ± SD). Expression of the inhibitor α1-PDX was confirmed by western blotting using 100 µg cell extract with antiserum against α1AT (C, lower panels). (D) Effect of the specific PC-inhibitor Dec-RVKR-cmk on phage RMS-P3/RR binding. Competition was performed with increasing concentrations of Dec-RVKR-cmk and constant amounts of phage (10^9 pfu). Phage binding was calculated over T7.\nas §1"}, "MRC-5-FUR cells": {"system": "MRC-5-FUR cells", "assay": "FITC-RMS-P3/RR binding to furin-transfected fibroblasts", "format": "cell-based", "settings": "100 nM, 1h at RT", "method": "as §2, with “RMS-P3/RR binding. […] Phage binding” for “RMS-P3/RR binding. Competition was performed with increasing concentrations of Dec-RVKR-cmk and constant amounts of phage (10^9 pfu). Phage binding”, “over T7. […]” for “over T7.”"}, "[3]": {"system": "RD xenograft tumors and control organs", "assay": "FITC-peptide distribution in xenograft mice", "format": "in vivo, mouse", "settings": "RD xenografts, i.v.", "method": "Figure 2 FITC-labeled RMS-P3 binding in vitro and distribution in vivo. (A) Visualization of FITC-RMS-P3 peptide binding in normal and cancer cells in vitro. Cultured myoblasts (SkMC-c), fibroblasts (MRC-5), RMS cells (RD) and breast carcinoma cells (MDA-MB 231) were incubated with 100 nM FITC-RMS-P3 peptide for 1 h at 37°C. Fluorescence microscopy of fixed cells is shown. (B) Living RD cells were incubated with FITC-RMS-P3 peptide, subsequently fixed and stained with giantin (red). Colocalization is shown in the merged picture by yellow. Blue staining (DAPI) indicates the nuclei. Magnifications: 40x, scale bars: 20 µm. (C) Distribution of FITC-RMS-P3 and control peptide FITC-RMS-Pctrl in mice xenografts of RD cells. FITC-RMS-P3 or control FITC-RMS-Pctrl peptide were injected i.v. and after 10 minutes of circulation, mice were perfused and tumor and control organs were collected. Cryosections were double-labeled with mouse endothelial vessels markers CD31 and MECA-32 (red). Nuclear staining by DAPI is shown in blue. Magnifications: 40x, scale bars: 20 µm.\nFigure 3 Identification of the receptor for RMS-P3. (A) Alanine-scan of the RMS-P3 sequence. RMS-P3 was mutated by replacing each amino acid residue with alanine (codon GCT). All phage mutants were tested individually for binding to RD cells in vitro. Mutated residues are indicated in bold. Phage binding was quantified over non-recombinant T7 and compared to the binding of wild type phage RMS-P3. Depicted are mean values ± SD of three independent experiments. […] (B) FITC-RMS-P3/RR and FITC-RMS-P3/AA distribution in RD xenograft mice. After tail vein injection of both FITC-RMS-P3/RR or control peptide RMS-P3/AA and circulation of 10 min, mice were perfused, tumors and control organs were dissected and FITC-peptide distribution (green) was evaluated in cryosections under fluorescence microscopy. Blood endothelial stainings (CD31 and MECA32) are shown in red, nuclear staining in blue (DAPI). Magnification: 20x, scale bar 50 µm. (C) Expression of proprotein convertases (PCs) measured by microarray profiling of 9 RMS cell lines and 30 RMS biopsy samples. Expression of PCs recognizing the cleavage site R(X)(R/K)(R/K) were considered. Each cell line or biopsy is represented by one data point. (D) Furin expression in different cell lines. Normal myoblasts (SkMC-c), fibroblasts (MRC-5), RMS cell lines (RD, Rh4, Rh30), furin-deficient colorectal carcinoma cells (LoVo) and furin-positive breast carcinoma cells (MBA-MB 231) were tested for furin expression by qRT-PCR (upper graph). […] Western blot (lower panels). Immature membrane-bound furin was detected at 103 kD, mature furin at 97 kD. PCNA was used as loading control.\nFigure 6 FITC-RMS-P3/RR and FITC-RMS-P3/AA distribution in mice bearing RD xenografts. Peptides were injected i.v. and after circulation the mice were perfused, tumors and control organs were removed and peptide distribution was evaluated on cryosections by fluorescence microscopy. Depicted are overlay images (B, upper left panel) and single channel pictures. FITC-peptide stainings (green), either furin or endothelial stainings (CD31, MECA32) in red and cell nuclei in blue (DAPI) are shown. Magnification: 40x, scale bars 50 µm.\nSupplementary file pone.0010445.s002.tif: Figure S2 Subcellular localization of FITC-RMS-P3 peptide. (A, B) FITC-RMS-P3/RR cell surface and intracellular localization. RD cells were incubated with 100 nM FITC-RMS-P3 peptide in vitro for 30 min at 4°C (A) or 37°C (B), respectively. Fixed cells were stained with undiluted 5.1H11 hybridoma supernatant against the human muscle-specific cell surface antigen N-CAM (red). A secondary rabbit anti-mouse Cy3 antibody (1∶300, Invitrogen) was used for detection. […] Cell nuclei were visualized with DAPI. Nuclei are indicated in grey. Magnification: 63x, scale bars: 20 µm. […]"}}, "note": "Positions of bridges follow the written chain, without caps; N, C: chain ends. No end group written: not given here. *: point of attachment. FITC = O=C1OC2(c3ccc(O)cc3Oc3cc(O)ccc32)c2ccc(NC(=S)*)cc21"}
{"substance": "CSPNNTRRPNKC (disulfide 1-12 (inferred)) [RMS-Pctrl]", "values": [{"measurement": "effect on phage RMS-P3 binding", "setting": "RD cells [1]; increasing peptide concentrations", "result": "no effect"}, {"measurement": "regression slope b of phage RMS-P3 binding versus peptide concentration", "setting": "RD cells [1]", "result": 0.055}]}
{"substance": "Doxorubicin-succinyl-GG-CMGTINTRTRRC (disulfide) [Dox-RMS-P3/RR]", "values": [{"measurement": "tumor size compared to Dox alone, Dox and peptide, peptide alone or vehicle", "setting": "RD xenografts; 10 µg doxorubicin equivalent/week i.v., student's t-test, p<0.05", "result": "significantly smaller"}, {"measurement": "increase in therapeutic efficacy compared to doxorubicin treatment alone", "setting": "RD xenografts; RMS in mice", "result": "two-fold"}, {"measurement": "delay in tumor growth compared to untargeted drug delivery", "setting": "RD xenografts; weekly tail vein injections, 30 days", "result": "significant delay in tumor growth"}]}
{"substance": "decanoyl-Arg-Val-Lys-Arg-chloromethylketone [Dec-RVKR-cmk]", "values": [{"measurement": "phage RMS-P3/RR binding in presence of inhibitor", "setting": "RD cells [2]; 1 µM Dec-RVKR-cmk, RD cells, 30 min preincubation, phage 10^9 pfu 1 h", "result": "half-maximal"}, {"measurement": "effect on binding of control phage RMS-P3/AA", "setting": "RD cells [2]; Dec-RVKR-cmk, RD cells", "result": "remained unaffected"}, {"measurement": "regression slope b of phage RMS-P3/RR binding versus Dec-RVKR-cmk concentration", "setting": "RD cells [2]; least-squares regression, N = 18, r^2 = 0.883, p<0.0001", "result": "−17.9"}]}
{"substance": "CMGTINTRTKKC (disulfide 1-12 (inferred)) [RMS-P3]", "values": [{"measurement": "IC50", "setting": "RD cells [1]; RD cells, 10^6, peptide preincubated 30 min, then phage 10^9 pfu 1 h at RT, three independent experiments, read-out: Half-maximal inhibition (IC50) of phage RMS-P3 binding", "result": "~0.1", "unit": "µM"}, {"measurement": "regression slope b of phage RMS-P3 binding versus peptide concentration", "setting": "RD cells [1]", "result": "−17.5"}, {"measurement": "phage RMS-P3 binding remaining", "setting": "RD cells [1]; peptide at highest concentration tested (10 µM), percentage of maximal phage binding", "result": 7.5, "unit": "%"}]}
{"substance": "FITC-RMS-P3/RR ({FITC}-GGCMGTINTRTRRC; also: cyclic peptide, ring type and places not given here)", "values": [{"measurement": "colocalization of furin and FITC-peptide", "setting": "MRC-5-FUR cells; anti-furin-antibody Mon-152", "result": "clear colocalization"}, {"measurement": "FITC-peptide binding to MRC-5-FUR cells", "setting": "MRC-5-FUR cells; in contrast to untransfected cells", "result": "strong peptide binding"}, {"measurement": "peptide distribution to muscle", "setting": "[3]; 10 min circulation", "result": "not in control organs"}, {"measurement": "peptide uptake in kidney", "setting": "[3]; 10 min circulation", "result": "not in control organs"}, {"measurement": "peptide accumulation in tumor", "setting": "[3]; 10 min circulation, cryosections", "result": "Accumulation"}, {"measurement": "peptide accumulation in tumor", "setting": "[3]; 10 min circulation, cryosections, listed as FITC-labeled RMS-P3/RR", "result": "strong peptide fluorescence"}, {"measurement": "colocalization with furin around blood vessels in tumor", "setting": "[3]; cryosections", "result": "furin colocalized with peptide RMS-P3/RR fluorescence"}, {"measurement": "penetration into the tumor", "setting": "[3]; around blood vessels, cryosections", "result": "about 30 µm"}]}
